Literature values, collected in patent publication US20100167989A1, “ISOPROPOXYPHENYLMETHYL INHIBITORS OF SGLT2” (AUSPEX PHARMACEUTICALS, INC., priority 2008, published 2010).

Key:
mice = conditions: orally administered
rats = conditions: orally administered

CCOC(=O)OC[C@H]1O[C@@H](Oc2nn(C(C)C)c(C)c2Cc2ccc(OC(C)C)cc2)[C@H](O)[C@@H](O)[C@@H]1O [remogliflozin etabonate, 4-[(4-isopropoxyphenyl)-methyl]-1-isopropyl-5-methyl-1H-pyrazol-3-yl-D-glucopyranoside]
urinary glucose excretion (mice): increased urinary glucose excretion in a dose-dependent manner
urinary glucose excretion (rats): increased urinary glucose excretion in a dose-dependent manner
